Measured values reported in paper PMC6780165, “Verruculosins A–B, New Oligophenalenone Dimers from the Soft Coral-Derived Fungus Talaromyces verruculosus” (Marine Drugs, 2019).

Key:
EGFR tyrosine kinase = EGFR tyrosine kinase (Homo sapiens, UniProt P00533); test: EGFR tyrosine kinase inhibitory activity (ELISA); type: biochemical; details: poly(Glu, Tyr)4:1 substrate, 10 μM ATP, 60 min at 37 °C, read-out: Anti-EGFR IC50 (µM) ± SD
Protocol: The EGFR tyrosine kinase inhibitory activity was tested using enzyme-linked immunosorbent assay (ELISA). The compounds were dissolved in dimethyl sulfoxide (DMSO) buffer solution and were then distributed to a 96-well plate pre-coated with poly(Glu, Tyr)4:1 as a substrate. Each well was treated with 50 μL of 10 μM ATP solution diluted with reaction buffer and the reaction was started by the addition of EGFR tyrosine kinase. After 60 min of incubation at 37 °C, the plate was washed three times with phosphate buffered saline containing 0.1% Tween 20 (PBST). Next, antiphosphotyrosine (PY99) antibody 100 μL was added. After incubation for 30 min at 37 °C, the plate was washed three times and goat anti-mouse IgG horseradish peroxidase was added. The plate was reincubated at 37 °C for 30 min and washed as before. Lastly, 100 μL of color development solution was added and the plate was incubated at room temperature until color emerged. The reaction was terminated by adding 50 μL of 2 M H2SO4, and the absorbance was measured on the Molecular Devices SpectraMax 190 microplatereader at 490 nm [20]. The known EGFR inhibitor, afatibib, was utilized as a positive control, and 0.1% (v/v) DMSO was used as a negative control.

[1] = test system: human non-small cell lung carcinoma (NCL-H460) cells; set-up: method as in ref 8, ref 9; details: cited from earlier work
[2] = test system: human breast cancer (MCF-7) cells; set-up: method as in ref 8, ref 9; details: cited from earlier work
[3] = test system: human cervical cancer (Hela) cells; set-up: method as in ref 8, ref 9; details: cited from earlier work
CDC25B = target: T1, CDC25B (Homo sapiens, UniProt P30305); test: CDC25B enzymatic activity assay (OMFP dephosphorylation); type: biochemical; details: OMFP substrate 10 μM, 100 nM CDC25B, 30 °C, pH 8.0; read-out: Anti-CDC25B IC50 (µM) ± SD
T1 sequence (P30305 1-580): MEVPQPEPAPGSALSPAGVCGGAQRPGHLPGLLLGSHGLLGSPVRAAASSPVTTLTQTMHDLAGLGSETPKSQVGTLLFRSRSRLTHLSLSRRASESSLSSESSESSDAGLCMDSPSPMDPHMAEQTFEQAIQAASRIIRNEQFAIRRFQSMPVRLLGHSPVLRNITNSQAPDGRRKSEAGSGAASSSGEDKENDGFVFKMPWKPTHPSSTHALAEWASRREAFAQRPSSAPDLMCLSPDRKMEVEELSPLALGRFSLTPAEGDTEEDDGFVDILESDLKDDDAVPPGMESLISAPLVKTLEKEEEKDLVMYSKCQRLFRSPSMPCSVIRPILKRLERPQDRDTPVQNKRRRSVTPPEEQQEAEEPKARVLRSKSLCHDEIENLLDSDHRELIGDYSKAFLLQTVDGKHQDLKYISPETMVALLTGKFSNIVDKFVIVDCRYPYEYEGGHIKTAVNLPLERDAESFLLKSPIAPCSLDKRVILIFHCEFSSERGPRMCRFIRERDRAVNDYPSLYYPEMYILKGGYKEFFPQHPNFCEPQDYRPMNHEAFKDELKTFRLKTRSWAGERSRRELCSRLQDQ
Protocol: The enzymatic activity of the CDC25B was determined at 30 °C by monitoring the dephosphorylation of 3-O-methylfluorescein phosphate (OMFP), which was used as a substrate for the CDC25B and can be monitored at a 535 nm emission wavelength and 485 nm excitation wavelength in the EnVisionmultilabel plate reader. The assay was measured in a 100 μL mixture system containing 50 mM Tris-HCl, pH 8.0, 50 mM NaCl, 10 μM OMFP, 100 nM CDC25B, 1 mM dithiothreitol (DTT), 1 mM ethylene diamine tetraacetic acid (EDTA), 1% glycerin, and 2 mg/L compound. The initial rate of the dephosphorylation was determined using the early linear region of the enzymatic reaction kinetic curve. DMSO and Na3VO4 were used as negative and positive controls, respectively.

[4] = test system: mitochondrial respiration; set-up: method as in PMID 7122988; details: cited from earlier work
[5] = test system: murine leukemia L-1210 cells; set-up: method as in ref 5, ref 6; details: cited from earlier work

Sequence of EGFR tyrosine kinase (P00533 25-1210): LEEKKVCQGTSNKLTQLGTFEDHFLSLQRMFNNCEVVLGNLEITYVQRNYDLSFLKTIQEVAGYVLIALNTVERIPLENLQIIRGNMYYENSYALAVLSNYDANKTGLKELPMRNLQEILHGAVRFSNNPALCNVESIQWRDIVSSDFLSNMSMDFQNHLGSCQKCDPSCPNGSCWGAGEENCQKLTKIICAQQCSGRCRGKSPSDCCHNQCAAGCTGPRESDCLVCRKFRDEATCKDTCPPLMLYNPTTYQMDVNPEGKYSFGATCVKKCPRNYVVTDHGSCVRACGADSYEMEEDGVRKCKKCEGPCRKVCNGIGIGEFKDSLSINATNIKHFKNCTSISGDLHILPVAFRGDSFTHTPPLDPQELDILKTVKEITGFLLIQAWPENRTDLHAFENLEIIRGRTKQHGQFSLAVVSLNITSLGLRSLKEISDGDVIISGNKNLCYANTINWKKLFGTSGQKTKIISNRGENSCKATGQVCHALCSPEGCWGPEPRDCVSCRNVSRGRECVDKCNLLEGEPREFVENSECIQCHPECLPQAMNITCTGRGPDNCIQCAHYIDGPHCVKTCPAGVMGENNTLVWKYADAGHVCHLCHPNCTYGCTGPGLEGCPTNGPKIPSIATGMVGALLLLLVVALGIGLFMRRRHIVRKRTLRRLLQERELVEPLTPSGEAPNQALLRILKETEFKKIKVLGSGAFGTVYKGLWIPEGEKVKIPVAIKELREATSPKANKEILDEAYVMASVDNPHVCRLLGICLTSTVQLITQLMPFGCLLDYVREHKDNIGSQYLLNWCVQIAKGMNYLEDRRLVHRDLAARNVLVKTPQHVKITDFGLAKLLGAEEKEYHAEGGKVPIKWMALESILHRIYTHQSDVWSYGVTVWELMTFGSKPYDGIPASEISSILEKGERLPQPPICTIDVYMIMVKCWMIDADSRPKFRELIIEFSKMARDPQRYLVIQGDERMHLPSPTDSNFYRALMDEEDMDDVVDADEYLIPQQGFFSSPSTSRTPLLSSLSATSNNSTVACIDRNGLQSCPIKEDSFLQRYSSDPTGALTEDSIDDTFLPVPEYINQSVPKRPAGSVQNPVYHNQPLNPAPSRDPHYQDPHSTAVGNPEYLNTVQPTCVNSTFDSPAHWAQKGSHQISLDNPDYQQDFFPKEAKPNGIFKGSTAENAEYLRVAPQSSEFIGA

Molecule	IC50 (EGFR tyrosine kinase) [µM]	IC50 (CDC25B) [µM]	cytotoxicity against NCL-H460 cells (in words) [1]	cytotoxicity against MCF-7 cells (in words) [2]	activity against Hela cells (in words) [3]	also measured
Bascillosporin B [Bascillosporins B]			moderately active	moderately active	moderately active	
COC12c3c(C)cc(O)c4c(=O)occ(c34)C(=O)C1C13COC(=O)c4c(O)cc(C)c(c41)C(=O)C2C3OC(C)=O (centres unmarked) [Compound 4, duclauxin]	0.95 ± 0.64	0.75 ± 0.18				inhibitory effects on mitochondrial respiration (in words) [4]: strong inhibitory effects; activity against murine leukemia L-1210 cells (in words) [5]: highly active
Bascillosporin C			moderately active	moderately active	moderately active	
Bascillosporin A			high cytotoxicity	high cytotoxicity		
Bascillosporin H			moderately active	moderately active	moderately active	

Further lines, with some results ahead:

IC50 (EGFR tyrosine kinase) [µM]	IC50 (CDC25B) [µM]	Molecule	cytotoxicity against NCL-H460 cells (in words) [1]	cytotoxicity against MCF-7 cells (in words) [2]	activity against Hela cells (in words) [3]	also measured
1.22 ± 0.53		COC(=O)CC1OC(=O)c2c(O)cc(C)c3c2C1=C(O)C1C24COC(=O)c5c(O)cc(C)c(c52)C(=O)C(C4OC(C)=O)C31OC (centres unmarked) [Compound 2, verruculosin B]				
0.24 ± 0.17	0.26 ± 0.06	CC(=O)OC1C2C(=O)c3c(C)cc(O)c4c3C1(COC4=O)c1c(O)c3c4c(c(O)cc(C)c4c12)C(=O)OC3=O (centres unmarked) [Compound 5, xenoclauxin]				
	0.52 ± 0.02	[Na+].[Na+].[Na+].[O]=[V]([O-])([O-])[O-] [Na3VO4, reference compound]				
4.41 ± 2.32	0.4 ± 0.02	COC1OC(=O)c2c(O)cc(C)c3c4c(c(O)c1c23)C12COC(=O)c3c(O)cc(C)c(c31)C(=O)C4C2OC(C)=O (centres unmarked) [Compound 3, bacillisporin F]				
0.92 ± 0.25	0.38 ± 0.03	COC12c3c(C)cc(O)c4c3C3=C(OC(C)(O)CC3OC4=O)C1C13COC(=O)c4c(O)cc(C)c(c41)C(=O)C2C3OC(C)=O (centres unmarked) [Compound 1, verruculosin A]				
